Read-outs that look alike come from different tables or passages of the source. One block for each compound: values may come before it.
Assays:
CXCR4 [1] = molecular target: CXCR4 (Mus musculus, UniProt P70658); settings: read-out: IC50 of ^64Cu-4 binding to mouse splenocytes; constant amount of ^64Cu-4 and increasing concentrations of non-radioactive 4, 1 h; average of three experiments
PET studies = assay type: in vivo, C57BL/6 mice; settings: co-injection with excess (50 μg) non-radioactive 4
CXCR4 [2] = molecular target: CXCR4 (Homo sapiens, UniProt P61073); assay: Transwell migration assay of Jurkat cells towards SDF-1; assay type: cell-based; settings: SDF-1 in lower wells
Chain of CXCR4 (Homo sapiens, UniProt P61073) (P61073 whole entry): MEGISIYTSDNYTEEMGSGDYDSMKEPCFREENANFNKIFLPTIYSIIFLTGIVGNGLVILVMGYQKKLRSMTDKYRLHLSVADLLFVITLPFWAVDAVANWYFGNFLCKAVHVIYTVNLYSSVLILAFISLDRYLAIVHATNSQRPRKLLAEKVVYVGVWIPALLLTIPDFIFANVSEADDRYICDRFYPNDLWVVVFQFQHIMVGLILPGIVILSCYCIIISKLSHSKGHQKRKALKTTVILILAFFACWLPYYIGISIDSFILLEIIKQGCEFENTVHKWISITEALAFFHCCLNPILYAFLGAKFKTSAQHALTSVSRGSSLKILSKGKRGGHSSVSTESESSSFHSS

[3] = cited from earlier work

Chain of CXCR4 (Mus musculus, UniProt P70658) (P70658 whole entry): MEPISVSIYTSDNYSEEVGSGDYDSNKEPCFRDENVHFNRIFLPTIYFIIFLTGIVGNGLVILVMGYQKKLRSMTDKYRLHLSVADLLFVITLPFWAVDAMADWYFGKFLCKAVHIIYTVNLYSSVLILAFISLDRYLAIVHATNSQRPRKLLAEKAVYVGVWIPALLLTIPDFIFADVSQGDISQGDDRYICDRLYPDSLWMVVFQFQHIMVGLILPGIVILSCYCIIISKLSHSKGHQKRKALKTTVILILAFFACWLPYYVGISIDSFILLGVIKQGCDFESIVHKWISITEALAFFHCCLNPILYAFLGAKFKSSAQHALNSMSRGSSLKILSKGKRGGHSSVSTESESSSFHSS

Uptake in BM (1 h post i.v. injection): 14 % ID/g
Uptake in LN (1 h post i.v. injection): 10 % ID/g
Uptake in blood (1 h post i.v. injection): 1.7 % ID/g
Uptake in kidneys (1 h post i.v. injection): 10 % ID/g
Uptake in liver (1 h post i.v. injection): 41 % ID/g
Uptake in muscle (1 h post i.v. injection): 0.3 % ID/g
Uptake in spleen (1 h post i.v. injection): 13 % ID/g
Accumulation in blood (2 h post injection): < 1 % ID/g
Accumulation in liver (2 h post injection): 49 % ID/g
Change of accumulation in spleen, LN, liver and BM (6 h post injection): slight increase
Change of accumulation in kidneys (co-injection of excess (50 μg) non-labeled 4): corresponding increase in accumulation
Reduction of accumulation in liver (co-injection of excess (50 μg) non-labeled 4, 2 h): 79%
Reduction of accumulation in liver (co-injection of excess (50 μg) non-labeled 4, 6 h): 74%
Reduction of accumulation in all immune related organs (co-injection of excess (50 μg) non-labeled 4, versus accumulation after 2 or 6 h): 60–80%
IC50 (CXCR4 [1]): 46.9 µM
PET: uptake in spleen and liver after blocking (PET studies): undetectable levels
Compound: CC(=O)[O-].CC(=O)[O-].[64Cu+2].c1cc(CN2CCCNCCNCCCNCC2)ccc1CN1CCCNCCNCCCNCC1 [^64Cu-4, [^64Cu]-1′-{1,4-phenylenebis(methylene)}-bis{1,4,8,11-tetraaza-cyclotetradecane}copper acetate]

Lowest concentration that induces maximal migration of Jurkat cells (CXCR4 [2]): 100 ng/mL
Compound: SDF-1: chemokine stromal cell-derived factor-1, native ligand for CXCR4

Compound: ^99Tc- SDF-1: SDF-1 labeled with ^99Tc, imaging agent for myocardial infarction
Accumulation in infarcted myocardium [3]: 0.6 % ID/g
Accumulation in normal myocardium [3]: 0.1 % ID/g
